In paper PMC7000700, “RyR1-targeted drug discovery pipeline integrating FRET-based high-throughput screening and human myofiber dynamic Ca^2+ assays” (Scientific Reports, 2020):

Assays:
RyR2 [1] = target: T1, RyR2 (Sus scrofa, UniProt A0A5G2R1W3); assay: FLT-FRET between D-FKBP and A-CaM bound to RyR2 in cardiac SR membranes (dose-response); type: binding, porcine; set-up: RyR1 in skeletal SR membranes, and RyR2 in cardiac SR membranes; from tissue; host or cells: porcine cardiac left ventricle (crude SR vesicles); conditions: RyR2, cardiac SR, 30 nM Ca2+
Method: (§1) Necessary counter-screens to our pathological RyR1 conditions include evaluating compound effects in healthy conditions and on the cardiac isoform, RyR2. Using the same FRET assay as in HTS, we tested the dose response of key Hits from this screen and the previously HTS-identified RyR1 inhibitor, chloroxine, on healthy (5 mM GSH) and pathological (5 mM GSSG) conditions for both RyR1 in skeletal SR membranes, and RyR2 in cardiac SR membranes.
(§2) Skeletal HSR and cardiac CSR (0.4 mg/ml) membranes were independently pre-incubated with 60 nM D-FKBP, for 90 min, at 37 °C, in a solution containing 150 mM KCl, 5 mM GSH, 0.1 mg/mL BSA, 1 µg/mL Aprotinin/Leupeptin, 1 mM DTT and 20 mM PIPES (pH 7.0). To remove unbound D-FKBP, the SR membranes were spun down at 110,000 × g for 20 min, and then resuspended to 1 mg/mL (skeletal HSR) and 2 mg/mL (cardiac CSR) in binding buffer consisting of 150 mM KCl, 5 mM GSSG, 0.1 mg/mL BSA, 1μg/mL Aprotinin/Leupeptin and 20 mM PIPES, pH 7.0. These samples were then incubated with indicated [A-CaM] for 30 min at 22 °C in binding buffer containing 0.065 mM CaCl2 to give 30 nM free Ca^2+ in the presence of 1 mM EGTA (calculated by MaxChelator). This labeled SR sample was applied to the assay plates in 5 μL aliquots using a Multidrop™ Combi reagent dispenser (Thermo Scientific) with a standard-tube. An additional set of the assay plates were loaded with skeletal HSR or cardiac CSR labeled with only D-FKBP (no added A-CaM).
(§3) FLT measurements were conducted in a top-read FLT-PR designed and built by Fluorescence Innovations, Inc[33]. AF488 donor fluorescence was excited with a 473-nm microchip laser from Concepts Research Corporation (Belgium, WI), and emission was acquired with 490-nm long-pass and 517/20-nm band-pass filters (Semrock, Rochester, NY).
(§4) FLT waveforms for each well were fit based on a one-exponential decay function using least-squares minimization global-analysis software (Fluorescence Innovations, Inc.), as previously described[19],[33]. FRET efficiency (E) was determined as the fractional decrease of donor FLT (τD), due to the presence of acceptor fluorophore (τDA), using the following equation:1 E=1−τDA/τD,

RyR1 [2] = target: T2, RyR1 (Sus scrofa, UniProt P16960); assay: FLT-FRET between D-FKBP and A-CaM bound to RyR1 in skeletal SR membranes (HTS and dose-response); type: binding, porcine; set-up: RyR1 in skeletal SR membranes, and RyR2 in cardiac SR membranes; from tissue; host or cells: porcine longissimus dorsi muscle (heavy SR vesicles); conditions: for IC50: RyR1, skeletal SR
T2 sequence (P16960 whole entry): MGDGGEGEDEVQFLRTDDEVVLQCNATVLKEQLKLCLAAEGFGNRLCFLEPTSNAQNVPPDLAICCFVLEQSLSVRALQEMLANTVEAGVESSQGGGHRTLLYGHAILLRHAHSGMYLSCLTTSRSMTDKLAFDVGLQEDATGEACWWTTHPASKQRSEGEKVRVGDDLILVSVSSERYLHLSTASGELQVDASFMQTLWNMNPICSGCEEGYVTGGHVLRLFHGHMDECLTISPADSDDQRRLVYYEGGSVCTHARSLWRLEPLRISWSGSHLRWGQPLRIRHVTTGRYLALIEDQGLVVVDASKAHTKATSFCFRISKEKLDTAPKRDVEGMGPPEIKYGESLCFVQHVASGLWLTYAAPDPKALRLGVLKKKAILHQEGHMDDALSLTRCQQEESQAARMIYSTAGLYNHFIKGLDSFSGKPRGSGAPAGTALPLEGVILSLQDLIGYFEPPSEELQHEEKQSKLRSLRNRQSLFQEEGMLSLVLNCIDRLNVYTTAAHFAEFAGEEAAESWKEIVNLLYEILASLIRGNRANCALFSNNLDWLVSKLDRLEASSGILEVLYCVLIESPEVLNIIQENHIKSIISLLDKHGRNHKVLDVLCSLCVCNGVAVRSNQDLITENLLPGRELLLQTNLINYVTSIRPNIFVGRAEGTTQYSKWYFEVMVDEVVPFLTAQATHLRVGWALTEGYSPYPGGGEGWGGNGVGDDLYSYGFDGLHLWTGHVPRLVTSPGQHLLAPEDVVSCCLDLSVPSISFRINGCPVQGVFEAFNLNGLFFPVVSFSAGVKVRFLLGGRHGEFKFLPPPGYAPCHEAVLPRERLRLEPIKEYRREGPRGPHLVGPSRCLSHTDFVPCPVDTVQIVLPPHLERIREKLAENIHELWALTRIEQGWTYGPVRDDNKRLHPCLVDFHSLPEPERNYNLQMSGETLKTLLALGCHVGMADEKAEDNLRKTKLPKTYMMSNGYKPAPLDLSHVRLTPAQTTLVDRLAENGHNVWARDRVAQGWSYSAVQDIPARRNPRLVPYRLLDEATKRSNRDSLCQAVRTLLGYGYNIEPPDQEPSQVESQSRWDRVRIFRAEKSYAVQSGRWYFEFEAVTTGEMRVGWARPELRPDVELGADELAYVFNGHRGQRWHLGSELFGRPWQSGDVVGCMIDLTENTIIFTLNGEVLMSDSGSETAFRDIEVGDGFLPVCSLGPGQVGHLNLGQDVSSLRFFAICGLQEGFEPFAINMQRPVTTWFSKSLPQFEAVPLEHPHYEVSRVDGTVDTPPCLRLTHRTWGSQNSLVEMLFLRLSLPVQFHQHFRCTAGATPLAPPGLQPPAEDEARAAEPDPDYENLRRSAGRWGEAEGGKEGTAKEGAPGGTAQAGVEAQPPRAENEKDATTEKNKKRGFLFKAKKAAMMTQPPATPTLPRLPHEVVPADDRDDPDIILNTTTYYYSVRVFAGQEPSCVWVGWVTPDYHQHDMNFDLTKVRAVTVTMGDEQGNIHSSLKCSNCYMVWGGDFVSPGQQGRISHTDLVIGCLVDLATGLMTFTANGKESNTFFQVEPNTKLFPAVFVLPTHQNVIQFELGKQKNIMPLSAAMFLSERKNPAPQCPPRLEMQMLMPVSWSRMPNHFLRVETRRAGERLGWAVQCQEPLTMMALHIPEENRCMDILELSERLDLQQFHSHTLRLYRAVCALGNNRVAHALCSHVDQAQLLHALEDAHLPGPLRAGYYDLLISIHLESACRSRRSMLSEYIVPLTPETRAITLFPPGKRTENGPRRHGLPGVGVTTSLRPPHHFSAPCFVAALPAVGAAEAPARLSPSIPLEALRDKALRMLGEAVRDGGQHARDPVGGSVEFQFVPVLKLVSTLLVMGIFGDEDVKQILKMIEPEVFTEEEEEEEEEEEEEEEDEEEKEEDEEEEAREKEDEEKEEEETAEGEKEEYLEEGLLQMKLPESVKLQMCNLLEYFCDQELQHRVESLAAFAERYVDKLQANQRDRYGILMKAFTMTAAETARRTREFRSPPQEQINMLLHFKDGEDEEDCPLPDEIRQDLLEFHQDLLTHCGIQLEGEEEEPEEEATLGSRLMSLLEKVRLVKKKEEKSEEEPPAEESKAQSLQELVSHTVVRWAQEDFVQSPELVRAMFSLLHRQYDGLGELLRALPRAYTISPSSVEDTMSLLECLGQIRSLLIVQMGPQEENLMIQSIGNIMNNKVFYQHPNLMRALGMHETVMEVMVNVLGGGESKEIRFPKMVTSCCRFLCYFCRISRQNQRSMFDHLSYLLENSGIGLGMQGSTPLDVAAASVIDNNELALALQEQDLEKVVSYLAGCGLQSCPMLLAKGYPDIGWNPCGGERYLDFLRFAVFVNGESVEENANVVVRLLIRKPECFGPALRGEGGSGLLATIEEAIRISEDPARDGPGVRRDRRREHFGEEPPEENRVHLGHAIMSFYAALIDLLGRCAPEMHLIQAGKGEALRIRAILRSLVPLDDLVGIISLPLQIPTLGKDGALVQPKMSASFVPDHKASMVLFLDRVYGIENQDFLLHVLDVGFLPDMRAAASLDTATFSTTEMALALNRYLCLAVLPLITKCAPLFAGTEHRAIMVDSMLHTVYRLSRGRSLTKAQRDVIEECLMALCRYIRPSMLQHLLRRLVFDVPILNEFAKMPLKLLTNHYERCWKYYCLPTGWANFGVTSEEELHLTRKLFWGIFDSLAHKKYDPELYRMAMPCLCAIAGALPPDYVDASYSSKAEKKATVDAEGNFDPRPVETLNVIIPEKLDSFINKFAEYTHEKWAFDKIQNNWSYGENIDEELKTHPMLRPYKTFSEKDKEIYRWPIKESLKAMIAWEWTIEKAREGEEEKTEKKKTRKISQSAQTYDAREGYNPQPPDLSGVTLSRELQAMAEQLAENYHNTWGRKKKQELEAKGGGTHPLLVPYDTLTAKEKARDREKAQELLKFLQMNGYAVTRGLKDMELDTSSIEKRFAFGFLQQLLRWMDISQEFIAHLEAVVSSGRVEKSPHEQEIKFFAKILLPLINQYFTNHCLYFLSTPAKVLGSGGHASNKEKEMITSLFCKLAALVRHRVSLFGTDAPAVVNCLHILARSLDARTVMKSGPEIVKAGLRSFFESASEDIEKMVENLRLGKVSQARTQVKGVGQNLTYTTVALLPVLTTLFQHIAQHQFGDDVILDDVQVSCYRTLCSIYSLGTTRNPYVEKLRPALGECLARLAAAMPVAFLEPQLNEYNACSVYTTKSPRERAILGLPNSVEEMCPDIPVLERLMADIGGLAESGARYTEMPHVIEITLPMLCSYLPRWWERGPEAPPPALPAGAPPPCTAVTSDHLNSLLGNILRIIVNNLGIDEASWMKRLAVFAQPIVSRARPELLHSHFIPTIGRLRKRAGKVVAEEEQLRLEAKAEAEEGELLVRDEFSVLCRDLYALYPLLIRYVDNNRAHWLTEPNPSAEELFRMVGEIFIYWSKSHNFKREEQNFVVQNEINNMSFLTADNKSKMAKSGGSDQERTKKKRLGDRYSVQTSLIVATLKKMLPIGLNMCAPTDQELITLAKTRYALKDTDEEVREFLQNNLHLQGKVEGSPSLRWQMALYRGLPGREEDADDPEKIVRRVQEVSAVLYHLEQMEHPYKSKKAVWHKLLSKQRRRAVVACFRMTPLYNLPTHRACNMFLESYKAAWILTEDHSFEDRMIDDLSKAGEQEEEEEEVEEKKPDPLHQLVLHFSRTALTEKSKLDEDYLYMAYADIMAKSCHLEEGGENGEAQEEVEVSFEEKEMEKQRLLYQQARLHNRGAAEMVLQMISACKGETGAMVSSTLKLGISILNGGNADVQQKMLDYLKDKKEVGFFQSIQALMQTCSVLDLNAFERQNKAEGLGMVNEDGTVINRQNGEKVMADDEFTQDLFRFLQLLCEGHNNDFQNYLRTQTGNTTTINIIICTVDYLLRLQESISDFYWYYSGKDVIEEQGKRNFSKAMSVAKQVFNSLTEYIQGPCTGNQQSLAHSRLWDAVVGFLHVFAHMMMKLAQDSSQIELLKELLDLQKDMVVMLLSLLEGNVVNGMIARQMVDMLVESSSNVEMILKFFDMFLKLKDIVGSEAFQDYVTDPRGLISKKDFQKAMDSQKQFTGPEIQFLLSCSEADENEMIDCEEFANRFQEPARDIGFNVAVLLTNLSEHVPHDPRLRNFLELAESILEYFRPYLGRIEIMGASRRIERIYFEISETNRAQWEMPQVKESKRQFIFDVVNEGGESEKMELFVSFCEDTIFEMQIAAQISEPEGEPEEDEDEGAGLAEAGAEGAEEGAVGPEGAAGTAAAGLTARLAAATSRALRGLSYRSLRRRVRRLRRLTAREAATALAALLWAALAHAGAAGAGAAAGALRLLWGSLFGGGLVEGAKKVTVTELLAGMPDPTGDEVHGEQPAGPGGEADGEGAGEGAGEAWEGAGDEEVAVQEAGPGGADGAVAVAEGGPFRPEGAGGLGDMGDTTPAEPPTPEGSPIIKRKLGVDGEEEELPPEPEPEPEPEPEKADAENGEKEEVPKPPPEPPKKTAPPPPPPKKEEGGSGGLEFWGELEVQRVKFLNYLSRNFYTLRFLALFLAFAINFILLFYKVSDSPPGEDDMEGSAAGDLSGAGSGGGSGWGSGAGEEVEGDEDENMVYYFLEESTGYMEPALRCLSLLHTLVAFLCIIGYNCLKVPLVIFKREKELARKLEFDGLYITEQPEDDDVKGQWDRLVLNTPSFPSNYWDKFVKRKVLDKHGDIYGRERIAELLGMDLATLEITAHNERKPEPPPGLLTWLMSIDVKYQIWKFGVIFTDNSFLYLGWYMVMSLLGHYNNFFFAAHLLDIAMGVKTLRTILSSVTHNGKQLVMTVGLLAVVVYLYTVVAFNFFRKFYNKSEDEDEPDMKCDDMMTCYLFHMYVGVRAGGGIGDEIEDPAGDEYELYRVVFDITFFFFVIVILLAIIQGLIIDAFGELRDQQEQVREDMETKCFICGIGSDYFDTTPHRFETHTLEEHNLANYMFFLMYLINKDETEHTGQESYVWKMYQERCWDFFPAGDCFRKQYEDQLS
Method: To confer compatibility with current HTS standards in industrial drug discovery facilities, we miniaturized our screening format from the previously established 384-well plates, requiring 50 μL sample per well[19], to 1536-well plates, requiring 5 μL sample per well. The complete 1280-compound library of pharmacologically active compounds (LOPAC) was applied as 5 nL/well in 40 columns of one 1536-well black-wall/black-bottom plate, with the remaining 8 columns loaded with 5 nL/well of DMSO, as no-drug controls. For each run of the screen, three plates were loaded with either (1) unlabeled HSR, or (2) HSR pre-incubated with donor-FKBP (D-FKBP; donor-only sample), or (3) donor-only sample that was additionally incubated with 0.3 μM acceptor-CaM (A-CaM) for 60 min prior to loading on the plate (donor-acceptor sample). This sub-saturating concentration of A-CaM was used to provide a readout that is sensitive to library compounds that may increase or decrease CaM binding affinity to RyR. To promote a homogenous population of RyR1 resembling that associated with myopathies, final assay conditions also included 30 nM Ca^2+ to represent resting (muscle relaxing) Ca^2+, and 5 mM oxidized glutathione (GSSG), which exaggerates the conditions associated with oxidative stress.
We acquired both FLT waveforms and fluorescence spectra, as previously described[19],[33],[34]. As previously observed, Hit effects were greatest following a 2-hour incubation with the library compounds (Supplementary Fig. 1a). As a result, all FRET results shown in Figs. 1 and 2, and Supplementary Fig. 2 are reported from the 2-hour incubation.
as §1, §2, §3
as §4, with “E=1−τDA/τD, […]” for “E=1−τDA/τD,”

RyR2 [3] = target: T1, RyR2; assay: F-FKBP binding to RyR2 by co-sedimentation with cardiac SR membranes; set-up: using co-sedimentation with pig skeletal and cardiac SR membranes; from tissue; host or cells: pig cardiac muscle (crude SR membranes); species or system pig; conditions: RyR2, 10 μM Hit, 30 nM Ca2+, 5 mM GSSG or GSH
Method: (§5) The Hit-induced effect on FRET between D-FKBP and A-CaM most likely results from one or the combination of factors, including a shift in CaM and/or FKBP12.6 binding, and/or structure of the RyR complex that shifts the D-A distance. Under the same assay conditions as in the primary screen, we assessed the effect of 10 μM Hit on fluorescent FKBP12.6 (F-FKBP) binding to RyRs, using co-sedimentation with pig skeletal and cardiac SR membranes.
(§6) Supplementary Fig. 3 Effect of HTS Hits on F-FKBP binding to a) RyR1 in skeletal HSR membranes, and b) RyR2
(§7) in cardiac CSR membranes at 30 nM Ca2+ in the presence of 5 mM GSSG or GSH. Results are represented as individual
(§8) data points and means ± SEM, n = 4-5. *P < 0.05 by 2-sided Student’s unpaired t-test. […]

RyR1 [4] = target: T2, RyR1; assay: F-FKBP binding to RyR1 by co-sedimentation with skeletal SR membranes; set-up: using co-sedimentation with pig skeletal and cardiac SR membranes; from tissue; host or cells: pig skeletal muscle (heavy SR membranes); species or system pig; conditions: RyR1, 10 μM Hit, 30 nM Ca2+, 5 mM GSSG or GSH
Method: as §5, §6, §7, §8

[5] = target: ryanodine receptor, cardiac isoform (RyR2), in porcine cardiac SR membranes (pig (endogenous in porcine cardiac left ventricle)); assay: FRET or BRET; same FLT-FRET read-out with temsirolimus (dose response); skeletal and cardiac SR membranes, 30 nM Ca2+, 5 mM GSSG or GSH
[6] = target: ryanodine receptor, skeletal muscle isoform (RyR1), in porcine skeletal heavy SR membranes (pig (endogenous in porcine longissimus dorsi muscle)) (UniProt P16960); assay: as above
[7] = target: ryanodine receptor, cardiac isoform (RyR2), in porcine cardiac SR membranes (pig (endogenous in porcine cardiac left ventricle)); assay: co-sedimentation; fluorescent FKBP12.6 co-sedimented with pig skeletal and cardiac SR membranes, same conditions as the primary screen; with 10 μM temsirolimus or tacrolimus
[8] = target: ryanodine receptor, skeletal muscle isoform (RyR1), in porcine skeletal heavy SR membranes (pig (endogenous in porcine longissimus dorsi muscle)) (UniProt P16960); assay: as above

Row | IC50 (RyR2 [1]; 5 mM GSH) | IC50 (RyR2 [1]; 5 mM GSSG) | Hit in primary FLT-FRET HTS of LOPAC (FRET altered by > 4 SD vs DMSO) (RyR1 [2]; 10 μM compound, 2-hour incubation, 30 nM Ca2+, 5 mM GSSG, 0.3 μM A-CaM, 1536-well) | Influence of GSSG vs GSH on the FRET dose-response effect (RyR1 [2]; 5 mM GSSG vs 5 mM GSH, isoform not given (figures show skeletal and cardiac SR)) | Compound concentration at which FRET is abolished (RyR1 [2]; FRET dose-response, isoform not given (figures show skeletal and cardiac SR)) | IC50 (RyR1 [2]; 30 nM Ca2+, 5 mM GSH) | IC50 (RyR1 [2]; 30 nM Ca2+, 5 mM GSSG) | Decrease of F-FKBP binding (RyR2 [3]) | Decrease of F-FKBP binding (RyR1 [4]) | FRET reduction by temsirolimus [5] | FRET reduction by temsirolimus [6] | percent decrease of binding with 10 μM temsirolimus or tacrolimus [7] | percent decrease of binding with 10 μM temsirolimus or tacrolimus [8] | Compound
1 | 2.5 ± 0.3 µM | 2.4 ± 0.6 µM | identified | not altered by GSH or GSSG | ≤ 20 µM | 5.9 ± 0.7 µM | 7.1 ± 0.5 µM | did not alter | did not alter | – | – | – | – | Cc1ccc(C(=O)Nc2ccc(S(=O)(=O)O)c3cc(S(=O)(=O)O)cc(S(=O)(=O)O)c23)cc1NC(=O)c1cccc(NC(=O)Nc2cccc(C(=O)Nc3cc(C(=O)Nc4ccc(S(=O)(=O)O)c5cc(S(=O)(=O)O)cc(S(=O)(=O)O)c45)ccc3C)c2)c1 [suramin]
2 | – | – | – | – | – | – | – | – | – | 68 to 70% | 10% | 70% | 20% | FKBP12.6 single-cysteine mutant (C22A/T85C/C76I) labeled with AF488 (donor-FKBP) (natural protein)
